Like-named read-outs stand apart in the source and are kept apart here.
Key:
[1] = target: GDP-bound KRAS wild-type protein (Homo sapiens, UniProt P01116); experiment: Binding to KRAS by surface plasmon resonance (SPR), Single Cycle Kinetics
[2] = target: GDP-bound NRAS wild-type protein (Homo sapiens, UniProt P01111); experiment: Binding to NRAS by surface plasmon resonance (SPR), Single Cycle Kinetics; conditions: for NRAS/KRAS (ratio of KD value for NRAS to KD value for KRAS): GDP-bound NRAS wild-type protein vs GDP-bound KRAS wild-type protein
Chain of GDP-bound NRAS wild-type protein (P01111 whole entry): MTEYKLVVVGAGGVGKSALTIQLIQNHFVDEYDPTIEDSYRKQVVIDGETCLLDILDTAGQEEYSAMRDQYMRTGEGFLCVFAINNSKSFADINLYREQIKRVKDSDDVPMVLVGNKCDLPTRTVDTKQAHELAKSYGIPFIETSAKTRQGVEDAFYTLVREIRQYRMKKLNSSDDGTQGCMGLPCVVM

[3] = target: GDP-bound HRAS wild-type protein (Homo sapiens, UniProt P01112); experiment: Binding to HRAS by surface plasmon resonance (SPR), Single Cycle Kinetics; conditions: for HRAS/KRAS (ratio of KD value for HRAS to KD value for KRAS): GDP-bound HRAS wild-type protein vs GDP-bound KRAS wild-type protein
Chain of GDP-bound HRAS wild-type protein (P01112 whole entry): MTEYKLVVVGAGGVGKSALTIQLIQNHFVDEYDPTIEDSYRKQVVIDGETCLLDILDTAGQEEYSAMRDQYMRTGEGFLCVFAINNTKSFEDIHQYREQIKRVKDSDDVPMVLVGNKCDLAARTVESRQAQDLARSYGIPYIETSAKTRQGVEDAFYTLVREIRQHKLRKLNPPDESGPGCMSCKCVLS

[4] = tested on: human lung cancer strain NCI-H441;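 note: cell proliferation inhibition after four days measured by CellTiter-Glo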
[5] = SPR, Single Cycle Kinetics, 1:1 binding model, GDP-bound KRAS wild-type protein, read-out: KRAS KD
[6] = SPR, Single Cycle Kinetics, GDP-bound KRAS wild-type protein, read-out: KRAS KD

Chain of GDP-bound KRAS wild-type protein (P01116 whole entry): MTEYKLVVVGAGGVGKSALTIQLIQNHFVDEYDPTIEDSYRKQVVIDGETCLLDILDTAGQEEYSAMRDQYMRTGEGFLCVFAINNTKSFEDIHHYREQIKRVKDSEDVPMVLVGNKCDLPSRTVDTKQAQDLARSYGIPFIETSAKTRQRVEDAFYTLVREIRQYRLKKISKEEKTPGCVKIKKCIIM

Structure (SMILES)	Kd [1, 5] [nM]	IC50 [4] [nM]	Kd [1, 6] [nM]	NRAS/KRAS (ratio of KD value for NRAS to KD value for KRAS) ([2]; SPR, KD ratio class)	HRAS/KRAS (ratio of KD value for HRAS to KD value for KRAS) ([3]; SPR, KD ratio class)	NRAS/KRAS (ratio of KD value for NRAS to KD value for KRAS) ([2]; SPR)	HRAS/KRAS (ratio of KD value for HRAS to KD value for KRAS) ([3]; SPR)	also measured
CCO[C@@H]1C[C@H]2C(=O)NC3(CCC3)C(=O)N(C)[C@@H](C3CCCC3)C(=O)N(C)[C@H](C(=O)N3CCOCC3)CC(=O)N(C)[C@@H](CC)C(=O)N[C@@H]([C@@H](C)CC)C(=O)N3CC[C@H]3C(=O)N(C)[C@H]3CC[C@@H](C)CN(C3=O)[C@@H](Cc3ccc(C(F)(F)F)cc3)C(=O)N(C)CC(=O)N[C@@H](CCc3ccc(C(F)(F)F)c(Cl)c3)C(=O)N2C1 [PP1375]	0.23	11.5		B (a compound having 3 or more and less than 10 is denoted as B)	B (a compound having 3 or more and less than 10 is denoted as B)			
CCC[C@H]1C(=O)N[C@@H]([C@@H](C)CC)C(=O)N(C)CC(=O)N(C)[C@H]2C/C=C\CCN(C2=O)[C@@H](CC2CCC(F)(F)CC2)C(=O)N(C)CC(=O)N[C@@H](CCc2ccc(C(F)(F)F)c(OC)c2)C(=O)N2C[C@H](OCC)C[C@H]2C(=O)NC2(CC(C)(C)C2)C(=O)N(C)[C@@H](C(CC)CC)C(=O)N(C)[C@H](C(=O)N(C)C)CC(=O)N1C [PP2482]		23.8	0.93			A (a compound having 10 or more and less than 20 is denoted as A)	A (a compound having 10 or more and less than 20 is denoted as A)	
CCC[C@H]1C(=O)N[C@@H]([C@@H](C)CC)C(=O)N(C)CC(=O)N(C)[C@H]2C/C=C\CCN(C2=O)[C@@H](Cc2ccc(C)cc2)C(=O)N(C)CC(=O)N[C@@H](CCc2ccc(C(F)(F)F)c(OC)c2)C(=O)N2C[C@H](OCC)C[C@H]2C(=O)N(C)C2(CCC2)C(=O)N(C)[C@@H](C2CCCC2)C(=O)N(C)[C@H](C(=O)N2CCCC2)CC(=O)N1C [PP3106, (2S,8S,12R,14S,20S,23S,27S,30S,36S,38Z)-20-cyclopentyl-12-ethoxy-8-[2-[3-methoxy-4-(trifluoromethyl)phenyl]ethyl]-4,16,19,22,26,32,35-heptamethyl-30-[(1S)-1-methylpropyl]-27-propyl-2-(p-tolylmethyl)-23-(pyrrolidine-1-carbonyl)spiro[1,4,7,10,16,19,22,26,29,32,35-undecazatricyclo[34.5.1.0^10,14]dotetracont-38-ene-17,1′-cyclobutane]-3,6,9,15,18,21,25,28,31,34,42-undecone]			0.048			A (a compound having 10 or more and less than 20 is denoted as A)	A (a compound having 10 or more and less than 20 is denoted as A)	Kd ([1]; SPR, Single Cycle Kinetics, 1:1 binding model, read-out: KD value with respect to GDP-bound KRAS wild-type protein): 0.048 nM; ratio of the KD value with respect to GDP-bound NRAS wild-type protein to the KD value with respect to KRAS ([2]; SPR, KD(NRAS)/KD(KRAS)): A (a compound having 10 or more and less than 20 is denoted as A); ratio of the KD value with respect to GDP-bound HRAS wild-type protein to the KD value with respect to KRAS ([3]; SPR, KD(HRAS)/KD(KRAS)): A (a compound having 10 or more and less than 20 is denoted as A); IC50 ([4]; read-out: NCI-H441 cell proliferation inhibitory activity, 50% proliferation inhibitory concentration (IC50 value), NCI-H441, four days, CellTiter-Glo): 2.9 nM
CCO[C@@H]1C[C@H]2C(=O)NC3(CCC3)C(=O)N(C)[C@@H](C(CC)CC)C(=O)N(C)[C@H](C(=O)N3CCCC3)CC(=O)N(C)[C@@H](C)C(=O)N[C@@H]([C@@H](C)CC)C(=O)N(C)CC(=O)N(C)[C@H]3C/C=C\CCN(C3=O)[C@@H](CC3CCC(F)(F)CC3)C(=O)N(C)CC(=O)N[C@@H](CCc3cc(F)c(C(F)(F)F)c(F)c3)C(=O)N2C1 [PP1436]	0.29	47.4		AA (a compound having 20 or more is denoted as AA)	A (a compound having 10 or more and less than 20 is denoted as A)			
CCO[C@@H]1C[C@H]2C(=O)NC3(CCC3)C(=O)N(C)[C@@H](C3CCCC3)C(=O)N(C)[C@H](C(=O)N(C)C)CC(=O)N(C)[C@@H](CC3CCC3)C(=O)N[C@@H]([C@@H](C)CC)C(=O)N(C)CC(=O)N(C)[C@H]3C/C=C\CCN(C3=O)[C@@H](Cc3ccc(C(F)(F)F)cc3)C(=O)N(C)CC(=O)N[C@@H](CCc3cc(F)c(C(F)(F)F)c(F)c3)C(=O)N2C1 [PP1118, (2S,8S,12R,14S,20S,23S,27S,30S,36S,38Z)-27-(cyclobutylmethyl)-20-cyclopentyl-8-[2-[3,5-difluoro-4-(trifluoromethyl)phenyl]ethyl]-12-ethoxy-N,N,4,19,22,26,32,35-octamethyl-30-[(1S)-1-methylpropyl]-3,6,9,15,18,21,25,28,31,34,42-undecaoxo-2-[[4-(trifluoromethyl)phenyl]methyl]spiro[1,4,7,10,16,19,22,26,29,32,35-undecazatricyclo[34.5.1.0^10,14]dotetracont-38-ene-17,1′-cyclobutane]-23-carboxamide]		6.5	0.056			A (a compound having 10 or more and less than 20 is denoted as A)	B (a compound having 3 or more and less than 10 is denoted as B)	
CCO[C@H](C)[C@@H]1NC(=O)[C@H](CC(C)C)N(C)C(=O)C[C@@H](C(=O)N(C)CC)N(C)C(=O)[C@H](C2CCCC2)N(C)C(=O)C2(CC(C)(C)C2)NC(=O)[C@@H]2C[C@H](C)CN2C(=O)[C@H](CCc2ccc(C(F)(F)F)c(OC)c2)NC(=O)CN(C)C(=O)[C@H](Cc2ccc(C)cc2)N2CC/C=C\C[C@@H](C2=O)N(C)C(=O)CN(C)C1=O [PP2413]		115	0.25			A (a compound having 10 or more and less than 20 is denoted as A)	A (a compound having 10 or more and less than 20 is denoted as A)	

The remaining compounds from weak to strong by IC50 [4], led by results:

Kd [1, 5] [nM]	IC50 [4] [nM]	Kd [1, 6] [nM]	Structure (SMILES)	NRAS/KRAS (ratio of KD value for NRAS to KD value for KRAS) ([2]; SPR, KD ratio class)	HRAS/KRAS (ratio of KD value for HRAS to KD value for KRAS) ([3]; SPR, KD ratio class)	NRAS/KRAS (ratio of KD value for NRAS to KD value for KRAS) ([2]; SPR)	HRAS/KRAS (ratio of KD value for HRAS to KD value for KRAS) ([3]; SPR)	also measured
	1050		CCC[C@H]1C(=O)N[C@@H](CC(C)C)C(=O)N2C[C@@H](OC)C[C@H]2C(=O)N(C)[C@H]2C/C=C\CCN(C2=O)[C@@H](Cc2ccc(C)cc2)C(=O)N(C)CC(=O)N[C@@H](CCc2ccc(C(F)(F)F)c(OC)c2)C(=O)N2C[C@H](OCC)C[C@H]2C(=O)NC2(CCC2)C(=O)N(C)[C@@H](C2CCCC2)C(=O)N(C)[C@H](C(=O)N(C)C)CC(=O)N1C [PP2548]					Kd ([1]; SPR Single Cycle Kinetics, GDP-bound KRAS wild-type protein, 1:1 binding model, read-out: KRAS KD): 7.8 nM; NRAS/KRAS (ratio of KD value with respect to GDP-bound NRAS wild-type protein to KD value with respect to KRAS) ([2]; SPR KD ratio NRAS/KRAS, class symbols): A (a compound having 10 or more and less than 20 is denoted as A); HRAS/KRAS (ratio of KD value with respect to GDP-bound HRAS wild-type protein to KD value with respect to KRAS) ([3]; SPR KD ratio HRAS/KRAS, class symbols): B (a compound having 3 or more and less than 10 is denoted as B)
	97.3	6.2	CCC(CC)[C@H]1C(=O)N(C)[C@H](C(=O)N(C)C)CC(=O)N(C)[C@@H](C(C)C)C(=O)N[C@@H]([C@@H](C)CC)C(=O)N(C)CC(=O)N(C)[C@H]2C/C=C\CCN(C2=O)[C@@H](CC2CCC(F)(F)CC2)C(=O)N(C)CC(=O)N[C@@H](CCc2cc(F)c(C(F)(F)F)c(F)c2)C(=O)N2C[C@@H](C)C[C@H]2C(=O)NC2(CC(C)(C)C2)C(=O)N1C [PP2496]			A (a compound having 10 or more and less than 20 is denoted as A)	A (a compound having 10 or more and less than 20 is denoted as A)	
0.12	90		CCO[C@@H]1C[C@H]2C(=O)NC3(CCCC3)C(=O)N(C)[C@@H](C3CCCC3)C(=O)N(C)[C@H](C(=O)N(C)C)CC(=O)N(C)[C@@H](C)C(=O)N[C@@H]([C@@H](C)CC)C(=O)N(C)CC(=O)N(C)[C@H]3C/C=C\CCN(C3=O)[C@@H](CC3CCC(F)(F)CC3)C(=O)N(C)CC(=O)N[C@@H](CCc3cc(F)c(C(F)(F)F)c(F)c3)C(=O)N2C1 [PP1456, (2S,8S,12R,14S,20S,23S,27S,30S,36S,38Z)-20-cyclopentyl-2-[(4,4-difluorocyclohexyl)methyl]-8-[2-[3,5-difluoro-4-(trifluoromethyl)phenyl]ethyl]-12-ethoxy-N,N,4,19,22,26,27,32,35-nonamethyl-30-[(1S)-1-methylpropyl]-3,6,9,15,18,21,25,28,31,34,42-undecaoxo-spiro[1,4,7,10,16,19,22,26,29,32,35-undecazatricyclo[34.5.1.0^10,14]dotetracont-38-ene-17,1′-cyclopentane]-23-carboxamide]	A (a compound having 10 or more and less than 20 is denoted as A)	A (a compound having 10 or more and less than 20 is denoted as A)			
0.11	24		CC[C@H](C)[C@@H]1NC(=O)[C@H](CC(C)C)N(C)C(=O)C[C@@H](C(=O)N(C)C)N(C)C(=O)[C@H](C2CCCC2)N(C)C(=O)C2(CCC2)NC(=O)[C@@H]2CCCN2C(=O)[C@H](CCc2cc(F)c(C(F)(F)F)c(F)c2)NC(=O)CN(C)C(=O)[C@H](Cc2ccc(C(F)(F)F)cc2)N2CC/C=C\C[C@@H](C2=O)N(C)C(=O)CN(C)C1=O [PP1272, (2S,8S,14S,20S,23S,27S,30S,36S,38Z)-20-cyclopentyl-8-[2-[3,5-difluoro-4-(trifluoromethyl)phenyl]ethyl]-27-isobutyl-N,N,4,19,22,26,32,35-octamethyl-30-[(1S)-1-methylpropyl]-3,6,9,15,18,21,25,28,31,34,42-undecaoxo-2-[[4-(trifluoromethyl)phenyl]methyl]spiro[1,4,7,10,16,19,22,26,29,32,35-undecazatricyclo[34.5.1.0^10,14]dotetracont-38-ene-17,1′-cyclobutane]-23-carboxamide]	A (a compound having 10 or more and less than 20 is denoted as A)	A (a compound having 10 or more and less than 20 is denoted as A)			
